# In US9714236B2, “Compounds and methods for inhibiting JAK” (AstraZeneca AB, priority 2015, dated 2017):
# Tests used:
# Type in all cases: biochemical
# [1] = target: recombinant JAK3 (amino acids 781-1124) (Homo sapiens (Human), UniProt P52333); test: Enzyme inhibition studies, JAK3 (peptide phosphorylation, Caliper LC3000); settings: ATP concentration of the tabulated values not stated (assayed at ATP Km 3 μM and at 5 mM)
# Method: (§1) Enzyme inhibition studies were performed using recombinant JAK1 (amino acids 866-1154, Life Technologies, #PV4774, Carlsbad, Calif.), JAK2 (amino acids 831-1132), or JAK3 (amino acids 781-1124) under buffer conditions of 50 mM HEPES pH 7.3, 1 mM DTT, 0.01% Tween® 20, 50 μg/mL BSA, and 10 mM MgCl2. JAK enzyme was expressed as an N-terminal GST fusion in insect cells and purified by glutathione-affinity and size-exclusion chromatographies. […] Phosphorylated and unphosphorylated peptides were separated and quantified by a Caliper LC3000 system (Caliper Life Sciences, MA) for calculating percent inhibition.
# [2] = target: recombinant JAK1 (amino acids 866-1154) (Homo sapiens (Human), UniProt P23458); test: Enzyme inhibition studies, JAK1 (peptide phosphorylation, Caliper LC3000); settings: ATP concentration not given (assayed at ATP Km 55 μM and at 5 mM)
# Chain of recombinant JAK1 (amino acids 866-1154) (P23458 866-1154): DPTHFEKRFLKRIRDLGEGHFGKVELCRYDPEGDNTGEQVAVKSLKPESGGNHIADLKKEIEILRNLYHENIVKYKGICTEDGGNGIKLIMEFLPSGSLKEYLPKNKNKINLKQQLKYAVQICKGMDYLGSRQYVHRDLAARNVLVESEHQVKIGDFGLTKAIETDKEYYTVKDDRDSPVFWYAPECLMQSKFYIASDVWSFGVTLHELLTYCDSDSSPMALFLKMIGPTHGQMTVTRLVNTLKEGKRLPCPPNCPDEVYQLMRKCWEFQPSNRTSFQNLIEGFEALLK
# Method: as §1
# [3] = target: recombinant JAK2 (amino acids 831-1132) (Homo sapiens (Human), UniProt O60674); test: Enzyme inhibition studies, JAK2 (peptide phosphorylation, Caliper LC3000); settings: ATP concentration of the tabulated values not stated (assayed at ATP Km 15 μM and at 5 mM)
# Chain of recombinant JAK2 (amino acids 831-1132) (O60674 831-1132): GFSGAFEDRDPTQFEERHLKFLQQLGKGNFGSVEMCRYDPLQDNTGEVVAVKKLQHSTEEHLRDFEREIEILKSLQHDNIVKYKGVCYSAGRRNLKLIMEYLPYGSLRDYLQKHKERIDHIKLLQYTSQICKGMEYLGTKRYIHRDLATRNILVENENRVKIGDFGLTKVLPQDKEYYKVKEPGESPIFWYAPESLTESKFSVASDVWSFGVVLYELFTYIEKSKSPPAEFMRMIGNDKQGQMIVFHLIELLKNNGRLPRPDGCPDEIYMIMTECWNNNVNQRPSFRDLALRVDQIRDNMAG
# Method: as §1
# Chain of recombinant JAK3 (amino acids 781-1124) (P52333 781-1124): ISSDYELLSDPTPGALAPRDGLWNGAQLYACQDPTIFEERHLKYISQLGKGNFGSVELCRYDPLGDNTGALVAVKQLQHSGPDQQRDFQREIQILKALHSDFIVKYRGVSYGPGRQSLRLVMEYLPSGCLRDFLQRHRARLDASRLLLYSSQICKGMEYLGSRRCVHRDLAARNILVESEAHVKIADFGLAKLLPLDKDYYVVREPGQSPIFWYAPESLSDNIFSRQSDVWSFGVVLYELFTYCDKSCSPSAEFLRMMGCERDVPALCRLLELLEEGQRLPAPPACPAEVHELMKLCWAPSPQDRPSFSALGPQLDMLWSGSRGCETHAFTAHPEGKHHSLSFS
Structure (SMILES),IC50 [1],IC50 [2],IC50 [3]
"COc1nn(C)cc1Nc1ncc(Br)c(-c2c[nH]c3c(NC(=O)[C@@H](C)N4CCN(C)CC4)cccc23)n1 [Example 37, (2R)-N-(3-{5-bromo-2-[(3-methoxy-1-methyl-1H-pyrazol-4-yl)amino]pyrimidin-4-yl}-1H-indol-7-yl)-2-(4-methylpiperazin-1-yl)propanamide]",15.4 µM,0.008 µM,1.58 µM
"COc1nn(C)cc1Nc1ncc(C)c(-c2c[nH]c3c(NC(=O)[C@@H](C)N4CCN(C)C[C@H]4C)cccc23)n1 [Example 38, (2R)-2-[(2R)-2,4-dimethylpiperazin-1-yl]-N-(3-{2-[(3-methoxy-1-methyl-1H-pyrazol-4-yl)amino]-5-methylpyrimidin-4-yl}-1H-indol-7-yl)propanamide]",> 30 µM,0.013 µM,6.48 µM
"CCOc1nn(C)cc1Nc1ncc(F)c(-c2c[nH]c3c(NC(=O)[C@@H](C)N4CCN(C)CC4)cccc23)n1 [Example 39, (2R)-N-(3-{2-[(3-ethoxy-1-methyl-1H-pyrazol-4-yl)amino]-5-fluoropyrimidin-4-yl}-1H-indol-7-yl)-2-(4-methylpiperazin-1-yl)propanamide]",> 30 µM,0.055 µM,25.5 µM
"CCOc1nn(C)cc1Nc1ncc(Cl)c(-c2c[nH]c3c(NC(=O)[C@@H](C)N4CCN(C)CC4)cccc23)n1 [Example 40, (2R)-N-(3-{5-chloro-2-[(3-ethoxy-1-methyl-1H-pyrazol-4-yl)amino]pyrimidin-4-yl}-1H-indol-7-yl)-2-(4-methylpiperazin-1-yl)propanamide]",> 30 µM,0.024 µM,8.93 µM
"Cc1cnc(Nc2cn(C)nc2C)nc1-c1c[nH]c2c(NC(=O)[C@@H](C)N3CCN(C)CC3)cccc12 [Example 41, (2R)-N-(3-{2-[(1,3-dimethyl-1H-pyrazol-4-yl)amino]-5-methylpyrimidin-4-yl}-1H-indol-7-yl)-2-(4-methylpiperazin-1-yl)propanamide]",> 30 µM,< 0.005 µM,2.58 µM
"Cc1cnc(Nc2cn(C)nc2C)nc1-c1c[nH]c2c(NC(=O)[C@H](C)N3CCN(C)CC3)cccc12 [Example 42, (2S)-N-(3-{2-[(1,3-dimethyl-1H-pyrazol-4-yl)amino]-5-methylpyrimidin-4-yl}-1H-indol-7-yl)-2-(4-methylpiperazin-1-yl)propanamide]",> 30 µM,0.106 µM,21.1 µM
"CC[C@@H](C(=O)Nc1cccc2c(-c3nc(Nc4cn(C)nc4OC)ncc3C)c[nH]c12)N1CCN(C)CC1 [Example 43, (2S)-N-(3-{2-[(3-Methoxy-1-methyl-1H-pyrazol-4-yl)amino]-5-methylpyrimidin-4-yl}-1H-indol-7-yl)-2-(4-methylpiperazin-1-yl)butanamide]",> 30 µM,0.079 µM,21.1 µM
"CC[C@H](C(=O)Nc1cccc2c(-c3nc(Nc4cn(C)nc4OC)ncc3C)c[nH]c12)N1CCN(C)CC1 [Example 44, (2R)-N-(3-{2-[(3-Methoxy-1-methyl-1H-pyrazol-4-yl)amino]-5-methylpyrimidin-4-yl}-1H-indol-7-yl)-2-(4-methylpiperazin-1-yl)butanamide]",> 30 µM,< 0.004 µM,1.95 µM
"COC[C@H](C(=O)Nc1cccc2c(-c3nc(Nc4cn(C)nc4OC)ncc3C)c[nH]c12)N1CCN(C)CC1 [Example 45, (2R)-3-methoxy-N-(3-{2-[(3-methoxy-1-methyl-1H-pyrazol-4-yl)amino]-5-methylpyrimidin-4-yl}-1H-indol-7-yl)-2-(4-methylpiperazin-1-yl)propanamide]",> 30 µM,< 0.003 µM,0.79 µM
"COC[C@@H](C(=O)Nc1cccc2c(-c3nc(Nc4cn(C)nc4OC)ncc3C)c[nH]c12)N1CCN(C)CC1 [Example 46, (2S)-3-methoxy-N-(3-{2-[(3-methoxy-1-methyl-1H-pyrazol-4-yl)amino]-5-methylpyrimidin-4-yl}-1H-indol-7-yl)-2-(4-methylpiperazin-1-yl)propanamide]",> 30 µM,0.986 µM,> 30 µM
"CC[C@H](C(=O)Nc1cccc2c(-c3ccnc(Nc4cn(C)nc4OC)n3)c[nH]c12)N1CCN(C)CC1 [Example 47, (2R)-N-(3-{2-[(3-Methoxy-1-methyl-1H-pyrazol-4-yl)amino]pyrimidin-4-yl}-1H-indol-7-yl)-2-(4-methylpiperazin-1-yl)butanamide]",> 30 µM,0.013 µM,6.95 µM
"CC[C@@H](C(=O)Nc1cccc2c(-c3ccnc(Nc4cn(C)nc4OC)n3)c[nH]c12)N1CCN(C)CC1 [Example 48, (2S)-N-(3-{2-[(3-Methoxy-1-methyl-1H-pyrazol-4-yl)amino]pyrimidin-4-yl}-1H-indol-7-yl)-2-(4-methylpiperazin-1-yl)butanamide]",> 30 µM,1.21 µM,> 30 µM
"CC[C@H](C(=O)Nc1cccc2c(-c3nc(Nc4cn(C)nc4C)ncc3F)c[nH]c12)N1CCN(C)CC1 [Example 49, (2R)-N-(3-{2-[(1,3-dimethyl-1H-pyrazol-4-yl)amino]-5-fluoropyrimidin-4-yl}-1H-indol-7-yl)-2-(4-methylpiperazin-1-yl)butanamide]",> 30 µM,< 0.004 µM,1.77 µM
"CC[C@@H](C(=O)Nc1cccc2c(-c3nc(Nc4cn(C)nc4C)ncc3F)c[nH]c12)N1CCN(C)CC1 [Example 50, (2S)-N-(3-{2-[(1,3-dimethyl-1H-pyrazol-4-yl)amino]-5-fluoropyrimidin-4-yl}-1H-indol-7-yl)-2-(4-methylpiperazin-1-yl)butanamide]",> 30 µM,0.265 µM,24.1 µM
"COC[C@H](C(=O)Nc1cccc2c(-c3nc(Nc4cn(C)nc4C)ncc3F)c[nH]c12)N1CCN(C)CC1 [Example 53, (2R)-N-(3-{2-[(1,3-dimethyl-1H-pyrazol-4-yl)amino]-5-fluoropyimidin-4-yl}-1H-indol-7-yl)-3-methoxy-2-(4-methylpiperazin-1-yl)propanamide]",> 30 µM,< 0.003 µM,0.322 µM
"COC[C@@H](C(=O)Nc1cccc2c(-c3nc(Nc4cn(C)nc4C)ncc3F)c[nH]c12)N1CCN(C)CC1 [Example 54, (2S)-N-(3-{2-[(1,3-dimethyl-1H-pyrazol-4-yl)amino]-5-fluoropyrimidin-4-yl}-1H-indol-7-yl)-3-methoxy-2-(4-methylpiperazin-1-yl)propanamide]",> 30 µM,1.67 µM,> 30 µM
"CCc1nn(C)cc1Nc1ncc(C)c(-c2c[nH]c3c(NC(=O)[C@@H](C)N4CCN(C)CC4)cccc23)n1 [Example 55, (2R)-N-(3-{2-[(3-ethyl-1-methyl-1H-pyrazol-4-yl)amino]-5-methylpyrimidin-4-yl}-1H-indol-7-yl)-2-(4-methylpiperazin-1-yl)propanamide]",> 30 µM,0.027 µM,4.22 µM
"Cc1nn(C)cc1Nc1ncc(F)c(-c2c[nH]c3c(NC(=O)[C@@H](C)N4CCN(C)CC4)cccc23)n1 [Example 56, (2R)-N-(3-{2-[(1,3-dimethyl-1H-pyrazol-4-yl)amino]-5-fluoropyrimidin-4-yl}-1H-indol-7-yl)-2-(4-methylpiperazin-1-yl)propanamide]",> 30 µM,0.028 µM,5.15 µM
"Cc1nn(C)cc1Nc1nccc(-c2c[nH]c3c(NC(=O)[C@@H](C)N4CCN(C)CC4)cccc23)n1 [Example 57, (2R)-N-(3-{2-[(1,3-dimethyl-1H-pyrazol-4-yl)amino]pyrimidin-4-yl}-1H-indol-7-yl)-2-(4-methylpiperazin-1-yl)propanamide]",> 30 µM,0.069 µM,9.26 µM
"CCn1cc(Nc2ncc(C)c(-c3c[nH]c4c(NC(=O)[C@@H](C)N5CCN(C)CC5)cccc34)n2)c(OC)n1 [Example 58, (2R)-N-(3-{2-[(1-ethyl-3-methoxy-1H-pyrazol-4-yl)amino]-5-methylpyrimidin-4-yl}-1H-indol-7-yl)-2-(4-methylpiperazin-1-yl)propanamide]",> 30 µM,0.017 µM,8.85 µM
"CCOc1nn(CC)cc1Nc1ncc(C)c(-c2c[nH]c3c(NC(=O)[C@@H](C)N4CCN(C)CC4)cccc23)n1 [Example 59, (2R)-N-(3-{2-[(3-ethoxy-1-ethyl-1H-pyrazol-4-yl)amino]-5-methylpyrimidin-4-yl}-1H-indol-7-yl)-2-(4-methylpiperazin-1-yl)propanamide]",> 30 µM,0.069 µM,> 30 µM
"COC[C@H](C(=O)Nc1cccc2c(-c3ccnc(Nc4cn(C)nc4OC)n3)c[nH]c12)N1CCN(C)CC1 [Example 60, (2R)-3-Methoxy-N-(3-{2-[(3-methoxy-1-methyl-1H-pyrazol-4-yl)amino]pyrimidin-4-yl}-1H-indol-7-yl)-2-(4-methylpiperazin-1-yl)propanamide]",> 30 µM,0.004 µM,1.53 µM
"COC[C@@H](C(=O)Nc1cccc2c(-c3ccnc(Nc4cn(C)nc4OC)n3)c[nH]c12)N1CCN(C)CC1 [Example 61, (2S)-3-Methoxy-N-(3-{2-[(3-methoxy-1-methyl-1H-pyrazol-4-yl)amino]pyrimidin-4-yl}-1H-indol-7-yl)-2-(4-methylpiperazin-1-yl)propanamide]",> 30 µM,2.9 µM,> 30 µM
